Test results as given in patent publication US20210284633A1, “3-(2-THIENYL)-5-(TRIFLUOROMETHYL)-1,2,4-OXADIAZOLE DERIVATIVES AS AGROCHEMICAL FUNGICIDES” (SYNGENTA CROP PROTECTION AG, priority 2018, published 2021).

Legend:
[1] = system: Puccinia recondita f. Sp. tritici; assay: Puccinia recondita f. sp. tritici / wheat / leaf disc preventative (brown rust); type: in vivo; conditions: foliar, 200 ppm in the applied formulation, wheat leaf segments cv. Kanzler, inoculated 1 day after application, assessed 7 to 9 days after application, compared to untreated, read-out: disease control
Procedure: Leaf disks or leaf segments of various plant species are cut from plants grown in a greenhouse. The cut leaf disks or segments are placed in multiwell plates (24-well format) onto water agar. The leaf disks are sprayed with a test solution before (preventative) or after (curative) inoculation. Compounds to be tested are prepared as DMSO solutions (max. 10 mg/mL) which are diluted to the appropriate concentration with 0.025% Tween20 just before spraying. The inoculated leaf disks or segments are incubated under defined conditions (temperature, relative humidity, light, etc.) according to the respective test system. A single evaluation of disease level is carried out 3 to 14 days after inoculation, depending on the pathosystem. Percent disease control relative to the untreated check leaf disks or segments is then calculated. Example 1: Fungicidal Activity Against Puccinia recondita f. Sp. tritici/Wheat/Leaf Disc Preventative (Brown Rust) Wheat leaf segments cv. Kanzler were placed on agar in multiwell plates (24-well format) and sprayed with the formulated test compound diluted in water. The leaf disks were inoculated with a spore suspension of the fungus 1 day after application. The inoculated leaf segments were incubated at 19° C. and 75% relative humidity (rh) under a light regime of 12 hours light/12 hours darkness in a climate cabinet and the activity of a compound was assessed as percent disease control compared to untreated when an appropriate level of disease damage appears in untreated check leaf segments (7 to 9 days after application). The following compounds at 200 ppm in the applied formulation give at least 80% disease control in this test when compared to untreated control leaf disks under the same conditions, which show extensive disease development.

Glomerella lagenarium = Glomerella lagenarium liquid culture / cucumber / preventative (anthracnose); type: cell-based; conditions: Colletotrichum orbiculare; 20 ppm in the applied formulation; liquid culture in PDB, 24° C.; measured 3 to 4 days after application; compared to untreated; read-out: disease control (inhibition of growth, photometric)
Procedure: Mycelia fragments or conidia suspensions of a fungus prepared either freshly from liquid cultures of the fungus or from cryogenic storage, are directly mixed into nutrient broth. DMSO solutions of the test compound (max. 10 mg/mL) are diluted with 0.025% Tween20 by a factor of 50 and 10 μL of this solution is pipetted into a microtiter plate (96-well format). The nutrient broth containing the fungal spores/mycelia fragments is then added to give an end concentration of the tested compound. The test plates are incubated in the dark at 24° C. and 96% relative humidity. The inhibition of fungal growth is determined photometrically after 2 to 7 days, depending on the pathosystem, and percent antifungal activity relative to the untreated check is calculated. Example 4: Fungicidal activity against Glomerella lagenarium liquid culture/cucumber/Preventative (Anthracnose) Conidia of the fungus from cryogenic storage are directly mixed into nutrient broth (PDB—potato dextrose broth). After placing a (DMSO) solution of test compound into a microtiter plate (96-well format), the nutrient broth containing the fungal spores is added. The test plates are incubated at 24° C. and the inhibition of growth is measured photometrically 3 to 4 days after application. The following compounds at 20 ppm in the applied formulation give at least 80% disease control in this test when compared to untreated control under the same conditions, which show extensive disease development.

[2] = system: Puccinia recondita f. Sp. tritici; assay: Puccinia recondita f. sp. tritici / wheat / leaf disc curative (brown rust); type: in vivo; conditions: foliar, 200 ppm in the applied formulation, wheat leaf segments cv. Kanzler, applied 1 day after inoculation, assessed 6 to 8 days after application, compared to untreated, read-out: disease control
Procedure: Leaf disks or leaf segments of various plant species are cut from plants grown in a greenhouse. The cut leaf disks or segments are placed in multiwell plates (24-well format) onto water agar. The leaf disks are sprayed with a test solution before (preventative) or after (curative) inoculation. Compounds to be tested are prepared as DMSO solutions (max. 10 mg/mL) which are diluted to the appropriate concentration with 0.025% Tween20 just before spraying. The inoculated leaf disks or segments are incubated under defined conditions (temperature, relative humidity, light, etc.) according to the respective test system. A single evaluation of disease level is carried out 3 to 14 days after inoculation, depending on the pathosystem. Percent disease control relative to the untreated check leaf disks or segments is then calculated. Example 2: Fungicidal Activity Against Puccinia recondita f. sp. tritici/Wheat/Leaf Disc Curative (Brown Rust) Wheat leaf segments cv. Kanzler are placed on agar in multiwell plates (24-well format). The leaf segments are then inoculated with a spore suspension of the fungus. Plates were stored in darkness at 19° C. and 75% relative humidity. The formulated test compound diluted in water was applied 1 day after inoculation. The leaf segments were incubated at 19° C. and 75% relative humidity under a light regime of 12 hours light/12 hours darkness in a climate cabinet and the activity of a compound was assessed as percent disease control compared to untreated when an appropriate level of disease damage appears in untreated check leaf segments (6 to 8 days after application). The following compounds at 200 ppm in the applied formulation give at least 80% disease control in this test when compared to untreated control leaf disks under the same conditions, which show extensive disease development.

Phakopsora pachurhizi = Phakopsora pachurhizi / soybean / leaf disc preventative (Asian soybean rust); type: in vivo; conditions: Glycine max, foliar, 200 ppm in the applied formulation, soybean leaf disks, inoculated one day after application, assessed 12 to 14 days after application, compared to untreated, read-out: disease control
Procedure: Leaf disks or leaf segments of various plant species are cut from plants grown in a greenhouse. The cut leaf disks or segments are placed in multiwell plates (24-well format) onto water agar. The leaf disks are sprayed with a test solution before (preventative) or after (curative) inoculation. Compounds to be tested are prepared as DMSO solutions (max. 10 mg/mL) which are diluted to the appropriate concentration with 0.025% Tween20 just before spraying. The inoculated leaf disks or segments are incubated under defined conditions (temperature, relative humidity, light, etc.) according to the respective test system. A single evaluation of disease level is carried out 3 to 14 days after inoculation, depending on the pathosystem. Percent disease control relative to the untreated check leaf disks or segments is then calculated.
Example 3: Fungicidal Activity Against Phakopsora pachurhizi/Soybean/Leaf Disc Preventative (Asian Soybean Rust)
Soybean leaf disks are placed on water agar in multiwell plates (24-well format) and sprayed with the formulated test compound diluted in water. One day after application leaf discs are inoculated by spraying a spore suspension on the lower leaf surface. After an incubation period in a climate cabinet of 24-36 hours in darkness at 20° C. and 75% rh leaf disc are kept at 20° C. with 12 hours light/day and 75% rh. The activity of a compound is assessed as percent disease control compared to untreated when an appropriate level of disease damage appears in untreated check leaf disks (12 to 14 days after application).
The following compounds at 200 ppm in the applied formulation give at least 80% disease control in this test when compared to untreated control leaf disks under the same conditions, which show extensive disease development.

Row | Structure (SMILES) | melting point [°C] | pest or weed control at 200 ppm [1] [%] | inhibition at 20 ppm (Glomerella lagenarium) [%] | pest or weed control at 200 ppm [2] [%] | pest or weed control at 200 ppm (Phakopsora pachurhizi) [%]
1 | Cc1ccc(Cc2ccc(-c3noc(C(F)(F)F)n3)s2)nc1 [Compound 1.11, 3-[5-[(5-methyl-2-pyridyl)methyl]-2-thienyl]-5-(trifluoromethyl)-1,2,4-oxadiazole] | 40 to 45 | ≥ 80 | ≥ 80 | ≥ 80 | ≥ 80
2 | CCC(O)(c1ccc(C)cn1)c1ccc(-c2noc(C(F)(F)F)n2)s1 (stereo not drawn) [Compound 1.10, 1-(5-methyl-2-pyridyl)-1-[5-[5-(trifluoromethyl)-1,2,4-oxadiazol-3-yl]-2-thienyl]propan-1-ol] |  | ≥ 80 | ≥ 80 | ≥ 80 | ≥ 80
3 | OC(c1cnccn1)c1ccc(-c2noc(C(F)(F)F)n2)s1 (stereo not drawn) [Compound 1.6, pyrazin-2-yl-[5-[5-(trifluoromethyl)-1,2,4-oxadiazol-3-yl]-2-thienyl]methanol] |  | ≥ 80 | ≥ 80 | ≥ 80 | 
4 | Cc1ccc(C(O)c2ccc(-c3noc(C(F)(F)F)n3)s2)nc1 (stereo not drawn) [Compound 1.13, (5-methyl-2-pyridyl)-[5-[5-(trifluoromethyl)-1,2,4-oxadiazol-3-yl]-2-thienyl]methanol] |  | ≥ 80 | ≥ 80 | ≥ 80 | ≥ 80
5 | Cc1cnc(Cc2ccc(-c3noc(C(F)(F)F)n3)s2)cn1 [Compound 1.1, 3-[5-[(5-methylpyrazin-2-yl)methyl]-2-thienyl]-5-(trifluoromethyl)-1,2,4-oxadiazole] |  | ≥ 80 | ≥ 80 | ≥ 80 | ≥ 80
6 | O=C(c1ncccn1)c1ccc(-c2noc(C(F)(F)F)n2)s1 [Compound 1.7, pyrimidin-2-yl-[5-[5-(trifluoromethyl)-1,2,4-oxadiazol-3-yl]-2-thienyl]methanone] | 110 to 116 | ≥ 80 | ≥ 80 | ≥ 80 | ≥ 80
7 | FC(F)(F)c1nc(-c2ccc(Cc3cnccn3)s2)no1 [Compound 1.4, 3-[5-(pyrazin-2-ylmethyl)-2-thienyl]-5-(trifluoromethyl)-1,2,4-oxadiazole] |  | ≥ 80 | ≥ 80 | ≥ 80 | ≥ 80
8 | Cc1cnc(C(O)c2ccc(-c3noc(C(F)(F)F)n3)s2)cn1 (stereo not drawn) [Compound 1.3, (5-methylpyrazin-2-yl)-[5-[5-(trifluoromethyl)-1,2,4-oxadiazol-3-yl]-2-thienyl]methanol] | 95 to 100 | ≥ 80 | ≥ 80 | ≥ 80 | ≥ 80

Second part, led by results:

Row | melting point [°C] | Structure (SMILES) | pest or weed control at 200 ppm [1] [%] | inhibition at 20 ppm (Glomerella lagenarium) [%] | pest or weed control at 200 ppm [2] [%] | pest or weed control at 200 ppm (Phakopsora pachurhizi) [%]
9 | 80 to 85 | O=C(c1cnc(Cl)cn1)c1ccc(-c2noc(C(F)(F)F)n2)s1 [Compound 1.9, (5-chloropyrazin-2-yl)-[5-[5-(trifluoromethyl)-1,2,4-oxadiazol-3-yl]-2-thienyl]methanone] | ≥ 80 | ≥ 80 | ≥ 80 | 
10 | 98 to 112 | Cc1ccc(C(=O)c2ccc(-c3noc(C(F)(F)F)n3)s2)nc1C [Compound 1.8, (5,6-dimethyl-2-pyridyl)-[5-[5-(trifluoromethyl)-1,2,4-oxadiazol-3-yl]-2-thienyl]methanone] | ≥ 80 |  | ≥ 80 | ≥ 80
11 | 105 to 110 | Cc1cnc(C(=O)c2ccc(-c3noc(C(F)(F)F)n3)s2)cn1 [Compound 1.2, (5-methylpyrazin-2-yl)-[5-[5-(trifluoromethyl)-1,2,4-oxadiazol-3-yl]-2-thienyl]methanone] | ≥ 80 | ≥ 80 | ≥ 80 | ≥ 80
12 | 111 to 114 | Cc1ccc(C(=O)c2ccc(-c3noc(C(F)(F)F)n3)s2)nc1 [Compound 1.12, (5-methyl-2-pyridyl)-[5-[5-(trifluoromethyl)-1,2,4-oxadiazol-3-yl]-2-thienyl]methanone] | ≥ 80 | ≥ 80 | ≥ 80 | ≥ 80
13 | 95 to 105 | O=C(c1cnccn1)c1ccc(-c2noc(C(F)(F)F)n2)s1 [Compound 1.5, pyrazin-2-yl-[5-[5-(trifluoromethyl)-1,2,4-oxadiazol-3-yl]-2-thienyl]methanone] | ≥ 80 | ≥ 80 | ≥ 80 | ≥ 80
